pIC50: −log10 of the molar value.
biological target: T1, K103NNY181C mutant reverse transcriptase (Human immunodeficiency virus type 1 group M subtype B, UniProt P04585, K690N/Y768C); assay: Reverse transcriptase enzymatic assay (PicoGreen), K103N/Y181C mutant RT; format: biochemical, HIV-1; conditions: IC50 mut (nM), mutant (K103N/Y181C) reverse transcriptase, enzymatic assay of Example 24
T1 construct: mutations that occur in the reverse transcriptase segment of the pol gene
Method: The enzymatic assay employed is described as follows: The reverse transcriptase (RT) enzyme assay has been adapted to a 96-well microtiter plate format and uses PicoGreen™ as a fluorescent intercalator. More explicitly, the HIV-1 RT enzyme was thawed and appropriately diluted into Tris/HCl 50 mM pH 7.8 containing NaCl 60 mM, MgCl2.6H2O 2 mM, DTT 6 mM, GSH 2 mM and 0.02% w/v Chaps to give ≈10 nM enzyme. To 10 μL of this enzyme solution was added 10 μL of inhibitor solution (40 μM to 2.032 nM inhibitor in the same assay buffer as above containing 4% v/v DMSO). The plate was pre-incubated for 15 minutes at room temperature before proceeding to the next step. In this pre-incubation step, the highest and lowest inhibitor concentrations were 20 μM and 1.016 nM respectively and the concentration of DMSO was 2% v/v. Then the enzymatic reaction was initiated by addition of 20 μL of substrate solution. The final reaction mixture contained Tris/HCl 50 mM pH 7.8, NaCl 60 mM, MgCl2.6H2O 2 mM, DTT 6 mM, GSH 2 mM, CHAPS 0.02% w/v, DMSO 1% v/v, poly rC 45 nM, dG15 4.5 nM, dGTP 3.6 μM, and 2.5 nM enzyme. In this incubation step, the highest and lowest inhibitor concentrations were 10 μM and 0.508 nM respectively. After addition of the substrate cocktail, the plate was covered with a plastic seal and incubated for 50 minutes at 37° C. in a dry incubator. The reaction was then quenched by addition of 5 μL of EDTA 0.5 M. The plate was shaken for 30 seconds at medium speed and incubated for 5 minutes at room temperature. Then 160 μL of PicoGreen™ 1:400 dilution from commercial stock (diluted in Tris 20 mM pH 7.5 with EDTA 1 mM) was added and the plate was shaken for 30 seconds and incubated for 10 minutes at room temperature. The plate was then analyzed using a POLARstar Galaxy fluorometer (BMG Labtechnologies) with λex and λem of 485 nm and 520 nm respectively. Each well was read for 1.25 second. Each row contained at its extremities a blank and a control well.

Structure (SMILES)	IC50
CC(C)(C)c1ccc(-n2nnnc2SCC(=O)Nc2ccc(NC(=O)CCc3ccccc3)cc2Cl)c(Cl)c1 [Compound 7038]	860 nM
CC(C)(C)c1ccc(-n2nnnc2SCC(=O)Nc2ccc(NC(=O)c3ccc(O)cc3)cc2Cl)c(Cl)c1 [Compound 7011]	181 nM
CC(C)(C)c1ccc(-n2nnnc2SCC(=O)Nc2ccc(NC(=O)Cc3ccccn3)cc2Cl)c(Cl)c1 [Compound 7032]	30 nM
CC(C)(C)c1ccc(-n2nnnc2SCC(=O)Nc2ccc(NC(=O)NCc3ccccc3)cc2Cl)c(Cl)c1 [Compound 7008]	428 nM
CC(C)(C)c1ccc(-n2nnnc2SCC(=O)Nc2ccc(NC(=O)Nc3ccccc3)cc2Cl)c(Cl)c1 [Compound 7002]	187 nM
CC(C)(C)c1ccc(-n2nnnc2SCC(=O)Nc2ccc(NC(=O)Cc3ccsc3)cc2Cl)c(Cl)c1 [Compound 7026]	88 nM
CC(C)(C)c1ccc(-n2nnnc2SCC(=O)Nc2ccc(NC(=O)Cc3ccccc3[N+](=O)[O-])cc2Cl)c(Cl)c1 [Compound 7019]	25 nM
CC(C)(C)c1ccc(-n2nnnc2SCC(=O)Nc2ccc(NC(=O)Cc3cc[n+]([O-])cc3)cc2Cl)c(Cl)c1 [Compound 7046]	140 nM
C#CCCC(=O)Nc1ccc(NC(=O)CSc2nnnn2-c2ccc(C(C)(C)C)cc2Cl)c(Cl)c1 [Compound 7020]	69 nM
CC(C)(C)c1ccc(-n2nnnc2SCC(=O)Nc2ccc(NC(=O)c3ccccc3)cc2Cl)c(Cl)c1 [Compound 7005]	106 nM

same assay, conditions: IC50 mut, K103N/Y181C mutant reverse transcriptase, enzymatic assay of Example 24

Structure (SMILES)	pIC50
CC(C)(C#Cc1ccc(NC(=O)CSc2nnnn2-c2cc(C3CC3)ccc2Cl)c(Cl)c1)NC(=O)CN1CCNCC1 [Compound 4195]	7.65
C=C(C)C#Cc1ccc(NC(=O)CSc2nnnn2-c2ccc(C3CC3)cc2Cl)c(Cl)c1 [Compound 4112]	7.27
CC(C)(C#Cc1ccc(NC(=O)CSc2nnnn2-c2cc(C(F)(F)F)ccc2Cl)c(Cl)c1F)NC(=O)c1cc[n+]([O-])cc1 [Compound 4164]	7.73
CC(C)(C#Cc1ccc(NC(=O)CSc2nnnn2-c2cc(Br)ccc2Cl)c(Cl)c1)NC(=O)c1cc[n+]([O-])cc1 [Compound 4222]	7.94
CC(C)(O)C#Cc1ccc(NC(=O)CSc2nnnn2-c2cc3c(cc2Cl)CCC3)c(Cl)c1 [Compound 4065]	7.87
CC(C)(C#Cc1ccc(NC(=O)CSc2nnnn2-c2ccc(C3CC3)cc2Cl)c(Cl)c1F)OCCN1CCNCC1 [Compound 4176]	6.97
CC(C)Oc1ccc(Cl)c(-n2nnnc2SCC(=O)Nc2ccc(C#CC(C)(C)C(=O)O)cc2Cl)c1 [Compound 4187]	7.21
CC(C)(C#Cc1ccc(NC(=O)CSc2nnnn2-c2ccc(C3CC3)cc2Cl)c(Cl)c1F)OCCN1CCC(F)(F)C1 [Compound 4217]	7.04
COC(=O)C(C)(C)C#Cc1ccc(NC(=O)CSc2nnnn2-c2cc(C(F)(F)F)ccc2Cl)c(Cl)c1 [Compound 4077]	7.35
CC(C)(C#Cc1ccc(NC(=O)CSc2nnnn2-c2cccc(C3CC3)c2Cl)c(Cl)c1)C(=O)O [Compound 4179]	6.33
CC(C)(C#Cc1ccc(NC(=O)CSc2nnnn2-c2ccc(C(C)(C)C)cc2Cl)c(Cl)c1)OCC(=O)NCc1ccco1 [Compound 4037]	7.18
CC(C)(C#Cc1ccc(NC(=O)CSc2nnnn2-c2cc(C(C)(C)C)cc(Br)c2Cl)c(Cl)c1)NC(=O)c1cc[n+]([O-])cc1 [Compound 4223]	7.52
CC(C)(C#Cc1ccc(NC(=O)CSc2nnnn2-c2ccc(C3CC3)cc2Cl)c(Cl)c1)OCCN1CCCC1=O [Compound 4182]	7.23
Cc1cc(Cl)c(-n2nnnc2SCC(=O)Nc2ccc(C#CC(C)(C)C(=O)O)cc2Cl)cc1C(F)(F)F [Compound 4063]	7.29
CC(C)(C#Cc1ccc(NC(=O)CSc2nnnn2-c2ccc(C(C)(C)C)cc2Cl)c(Cl)c1)OCC(=O)Nc1ccc(/C=C/C(=O)O)cc1 [Compound 4026]	7.20
CC(C)(C#Cc1ccc(NC(=O)CSc2nnnn2-c2cc(C3CC3)ccc2Cl)c(Cl)c1)NC(=O)c1cc[n+]([O-])cc1 [Compound 4208]	8.16
CC(C)(C#Cc1ccc(NC(=O)CSc2nnnn2-c2cc(C(C)(C)C)ccc2Cl)c(Cl)c1)NC(=O)CN1CCNCC1 [Compound 4202]	6.97
O=C(CSc1nnnn1-c1ccc(C2CC2)cc1Cl)Nc1ccc(C#CC2(CO)CC2)cc1Cl [Compound 4083]	7.54
CC(C)(C#Cc1ccc(NC(=O)CSc2nnnn2-c2ccc(C3CC3)cc2Cl)c(Cl)c1)NCC(N)=O [Compound 4231]	7.80
CC(C)(C)c1ccc(-n2nnnc2SCC(=O)Nc2ccc(C#CCCCOC(N)=O)cc2Cl)c(Cl)c1 [Compound 4061]	7.80
CC(C)(C#Cc1ccc(NC(=O)CSc2nnnn2-c2ccc(C3CC3)cc2Cl)c(Cl)c1)NC(=O)CNCCCn1ccnc1 [Compound 4127]	7.69
CC(C)(C#Cc1ccc(NC(=O)CSc2nnnn2-c2ccc(C3CC3)cc2Cl)c(Cl)c1)OCCN1CCCCC1 [Compound 4103]	6.66
CC(C)(C#Cc1ccc(NC(=O)CSc2nnnn2-c2ccc(C(C)(C)C)cc2Cl)c(Cl)c1)OCC(=O)NCC(=O)O [Compound 4052]	7.52
CC(C)(C#Cc1ccc(NC(=O)CSc2nnnn2-c2ccc(C(C)(C)C)cc2Cl)c(Cl)c1)OCC(=O)N1CCOCC1 [Compound 4039]	7.40
CC(C)(C#Cc1ccc(NC(=O)CSc2nnnn2-c2ccc(C3CC3)cc2Cl)c(Cl)c1)C(=O)NS(=O)(=O)c1ccccc1 [Compound 4183]	7.21
CC(C)c1ccc(-n2nnnc2SCC(=O)Nc2ccc(C#CC(C)(C)C(=O)O)cc2Cl)c(Cl)c1 [Compound 4121]	7.47

same assay, conditions: IC50 mut, mutant reverse transcriptase, enzymatic assay of Example 24

Structure (SMILES)	pIC50
O=C(O)Cc1ccc(-c2ccc(NC(=O)CSc3nnnn3-c3ccc4ncsc4c3Cl)c(Cl)c2)cc1 [Compound 2035]	6.57
CNC(=O)NS(=O)(=O)c1ccc(NC(=O)CSc2nnnn2-c2ccc(C3CC3)cc2Cl)c(Cl)c1 [Compound 3039]	6.57
CC(C)(COc1ccc(NC(=O)CSc2nnnn2-c2ccc(C3CC3)cc2Cl)c(Cl)c1)C(=O)O [Compound 3046]	6.98
CC(C)(C)c1ccc(-n2nnnc2SCC(=O)Nc2ccc(C(=O)N3CCOCC3)cc2Cl)c(Cl)c1 [Compound 6005]	6.25
O=C(COc1ccc(NC(=O)CSc2nnnn2-c2ccc(C3CC3)cc2Cl)c(Cl)c1)NCc1cccnc1 [Compound 5033]	6.90
O=C(CSc1nnnn1-c1ccc(C2CC2)cc1Cl)Nc1ccc(-c2ccc(OCCN3CCCCC3)cc2)cc1Cl [Compound 2047]	7.20
O=C(CSc1nnnn1-c1cc(C(F)(F)F)ccc1Cl)Nc1ccc(-c2ccc(OCCN3CCCC3)cc2)c(F)c1Cl [Compound 2058]	7.60
CC(C)(C)c1ccc(-n2nnnc2SCC(=O)Nc2ccc(OCC(=O)NCCc3ccc(O)c(O)c3)cc2Cl)c(Cl)c1 [Compound 5021]	6.74
CC(C)(C)c1ccc(-n2nnnc2SCC(=O)Nc2ccc(-c3ccc(C(=O)O)s3)cc2Cl)c(Cl)c1 [Compound 3030]	7.55
O=C(COc1ccc(NC(=O)CSc2nnnn2-c2ccc(C3CC3)cc2Cl)c(Cl)c1)NCCc1cccnc1 [Compound 5035]	6.59
CC(C)c1ccc(-n2nnnc2SCC(=O)Nc2ccc(-c3ccc(OCCN4CCCC4)cc3)cc2Cl)c(Br)c1 [Compound 2053]	7.62
CC(C)(C)c1ccc(-n2nnnc2SCC(=O)Nc2ccc(C(=O)NC3CC3)cc2Cl)c(Cl)c1 [Compound 6002]	7.51
CC(C)(C)c1ccc(-n2nnnc2SCC(=O)Nc2ccc(OCC(=O)NCCC(=O)O)cc2Cl)c(Cl)c1 [Compound 5025]	6.91
COC(=O)c1ccc(-c2ccc(NC(=O)CSc3nnnn3-c3ccc(C)cc3Cl)c(Cl)c2)cc1 [Compound 2001]	6.88
CC(C)(C)c1ccc(-n2nnnc2SCC(=O)Nc2ccc(OCC(=O)NCCc3ccc(O)cc3)cc2Cl)c(Cl)c1 [Compound 5016]	6.94
O=C(CSc1nnnn1-c1ccc(C2CC2)cc1Cl)Nc1ccc(C(=O)NCc2cccc[n+]2[O-])cc1Cl [Compound 6038]	7.19
O=C(CSc1nnnn1-c1ccc(C2CC2)cc1Cl)Nc1ccc(C(=O)NS(=O)(=O)c2ccccc2)cc1Cl [Compound 6037]	6.95
Cc1ccc(-n2nnnc2SCC(=O)Nc2ccc(-c3ccc(CCO)cc3)cc2Cl)c(Cl)c1 [Compound 2009]	7.55
Cc1ccc(-c2c(OCC(=O)Nc3ccc(C#CC(C)(C)C(=O)O)cc3Cl)n[nH]c2C)c(Cl)c1 [Compound 1015]	7.32
CC(C)(C)c1cc(Cl)c(-n2nnnc2SCC(=O)Nc2ccc(-c3ccc(OCC(=O)O)cc3)cc2Cl)c(Cl)c1 [Compound 2018]	7.92

Reference: US7517998B2, “Non nucleoside reverse transcriptase inhibitors” (priority 2004, dated 2009)
